This is an account of results in patent US7585938B2, “Gamma-secretase inhibitors” (priority 2002, dated 2009).

Series [1] is described as follows: Examination of solubility, visually and by microscopy. Format: physicochemical. An excerpt:
The compound synthesized in Example 1 was examined for its solubility, visually as well as by microscopy.

The test system of series [2] is γ-secretase. The experiment in a line: Amyloid protein determination by ELISA in cells with introduced APP artificial fragment C100 instead of APP695. The class given is cell-based, simian. To be noted: Inhibitor 100 μM; for Inhibition rate (%) Aβ40 / Inhibition rate (%) Aβ42(43): 100 µM. A general note: ELISA stands for enzyme-linked immunosorbent assay.
Series [3] concerns γ-secretase. The experiment in a line: Amyloid protein determination by ELISA in culture supernatant of COS cells with introduced Sweden-type APP695 gene. Format: cell-based, simian. To be noted: for Inhibition rate (%) Aβ42(43) / Inhibition rate (%) Total Aβ: 100 µM. An excerpt:
(§1) The human APP695 gene used in this example (whose nucleotide sequence in its coding region is shown as SEQ ID NO:6) was what had been screened from a cDNA library prepared from the dead brain of a normal human by a conventional method, and its entire nucleotide sequence was confirmed by a conventional method. Briefly, about 1 g of frozen cerebral tissue was phenol-treated and the supernatant aqueous solution was collected. After repeating this process, mRNA was precipitated by addition of ethanol. After dissolving in 20 mM tris-HCl, pH 8., 0.1 mM EDTA, cDNA was synthesized with reverse transcriptase using oligo-dT primers and the mRNA as a template. After remaining RNA was digested with RNase, using thus obtained single-stranded cDNA as a template, double-stranded cDNA was synthesized with DNA polymerase. The double-stranded cDNA was then blunt-ended with T4 DNA polymerase. Following introduction of methylation into a EcoR1 restriction site using EcoR1 methylase, an EcoR1 linker adapter was ligated using ligase. After removal of unreacted free adapter by gel filtration, ligation to λgt11 vector was effected using DNA ligase, and thus ligated product was incorporated into λ-phage using a packaging kit. E. coli cells in agar plates were infected with the λ-phage thus obtained, and the solution containing thus proliferated phage was used as cDNA library. For APP cDNA cloning, oligonucleotides that were anticipated based on the amyloid protein were radio-labeled using γ^32P-ATP and DNA kinase to provide the labeled nucleotides as probes. 10^6 pfu (plaque forming units) of phage were allowed to form plaques on agar plates, and brought into contact with a nylon membrane. The phage DNAs that stuck to the membrane were denaturated to single-stranded DNAs by alkali treatment of the nylon membrane, and the membrane then was neutralized, to which, after incubation in a solution containing salmon sperm DNAs, the ^32P radio-labeled nucleotide probes were added and allowed to hybridize for 12 hours. At this stage, where aimed APP gene incorporated to the phage and one of the oligonucleotides were mutually complementary in their sequences, they would form a double-stranded DNA. The nylon membrane was then exposed to X-ray film, and plaques on the agar plates corresponding to spots of exposure were identified with phages carrying APP gene (fragment). By repeating this process, a single phage was finally obtained. The nucleotide sequence of the APP gene incorporated into the phage was determined by publicly known Sanger method.
(§2) APP gene was efficiently introduced from outside into COS cells, which is a cultured cell line of simian kidney's origin, using Lipofectamine Plus reagent (Invitrogen K.K.) according to its protocol. Briefly, 1 μg of APP gene was dissolved in 100 μl of OPTI-MEM, mixed with 6 μl of Plus reagent and left to stand for 15 minutes at room temperature. In parallel, 4 μl of Lipofectamine dissolved in 100 μl of OPTI-MEM medium was prepared. This was then mixed with the APP gene solution, and left to stand for further 15 minutes. Six-well culture plates were provided in advance in each well of which was placed 800 μl of culture that had been prepared by culturing COS cells at 75% to 80% cell density in a DMEM medium supplemented with 10% fetal bovine serum, and then replacing the medium with OPTI-MEM medium. Two hundred pI of the reaction mixture containing the gene were added to each culture well. Twelve hours after introduction of the gene, the medium was changed from the OPTI-MEM medium containing the introduced gene to a 10% fetal bovine serum-supplemented DMEM medium free of the introduced gene. To this culture, the compound obtained in Example 1 was added. After 36 to 48 hours, culture supernatant was collected, transferred to centrifuging tubes, and centrifuged at 10,000 r.p.m. at room temperature for 5 minutes. The supernatant was used as a sample containing amyloid protein. […]

In series [4] the test system is γ-secretase. Put plainly: Amyloid protein determination by ELISA in culture supernatant of COS cells with introduced London-type (Val717Ile) APP695 gene. To be noted: for Inhibition rate (%) Total Aβ: 100 µM. Format: cell-based, simian.
Excerpt: as §1, §2

For series [5], the system named is γ-secretase. The experiment in a line: Amyloid protein determination by ELISA in culture supernatant of COS cells with introduced wild-type human APP695 gene. Format: cell-based, simian. To be noted: for Inhibition rate (%) Aβ42(43) / Inhibition rate (%) Total Aβ: 100 µM.
Excerpt: as §1, §2

Series [6] concerns the target T1, γ-secretase (Homo sapiens, UniProt P49768).
T1 construct: endogenous in cells; host or cells: IMR32 cells (transfected only with the substrate APP gene)
The experiment in a line: Amyloid protein determination by ELISA in IMR32 cells with introduced human APP695 gene carrying the Sweden mutation. The class given is cell-based. Here is the method:
APP gene was efficiently introduced from outside into COS cells, which is a cultured cell line of simian kidney's origin, using Lipofectamine Plus reagent (Invitrogen K.K.) according to its protocol. Briefly, 1 μg of APP gene was dissolved in 100 μl of OPTI-MEM, mixed with 6 μl of Plus reagent and left to stand for 15 minutes at room temperature. In parallel, 4 μl of Lipofectamine dissolved in 100 μl of OPTI-MEM medium was prepared. This was then mixed with the APP gene solution, and left to stand for further 15 minutes. Six-well culture plates were provided in advance in each well of which was placed 800 μl of culture that had been prepared by culturing COS cells at 75% to 80% cell density in a DMEM medium supplemented with 10% fetal bovine serum, and then replacing the medium with OPTI-MEM medium. Two hundred pI of the reaction mixture containing the gene were added to each culture well. Twelve hours after introduction of the gene, the medium was changed from the OPTI-MEM medium containing the introduced gene to a 10% fetal bovine serum-supplemented DMEM medium free of the introduced gene. To this culture, the compound obtained in Example 1 was added. After 36 to 48 hours, culture supernatant was collected, transferred to centrifuging tubes, and centrifuged at 10,000 r.p.m. at room temperature for 5 minutes. The supernatant was used as a sample containing amyloid protein. The shorter and the longer amyloid protein components contained in each sample can be separately determined using a commercially available ELISA kit for amyloid protein determination (KHB3441: Signal Select™ Human ⊖ Amyloid1-42 ELISA Kit, or KHB3481: Signal Select™ Human β Amyloid1-40 ELISA Kit, BioSource International, Inc. CA, USA). Those ELISA kits for amyloid determination included 96-well ELISA plates coated with a primary antibody to these two types of amyloid proteins. Following eliminating non-specific antigen-antibody reactions by allowing a usual non-specific blocking reaction, a sample medium containing the amyloid protein to be measured was reacted. Then, after usual washing, one of secondary antibodies was added. The secondary antibodies consisted of two deferent antibodies that can distinguish between the two types of amyloid proteins, the one is the shorter amyloid protein and the other is the longer amyloid antibody, without no cross reactivity. The difference between the two amyloid proteins is the absence or presence of the two amino acid residues (isoleucine and alanine) at their carboxyl terminus. The antibody that detects the former is considered to recognize valine at the carboxyl terminus and the antibody that detects the latter is thought to recognize the alanine.
The compounds (1′a) and (1′b) obtained above were measured for inhibitory activity by the same method as in Example 3. As the system for evaluation, however, IMR32, a neural system cell line of human origin, was used after introducing to it a human APP695 gene into which the Sweden mutation had been incorporated.

[7] abbreviates: Inhibitor 100 μM, Sweden-type APP695, COS cells.
Setting [8] is: Sweden-type APP695, inhibitor 100 μM (Table 2), listed as Compound.
Setting [9] is: Sweden-type APP695, inhibitor 100 μM (Table 2), listed as inhibitor.
[10] abbreviates: Inhibitor 100 μM, London-type APP695, COS cells.
Setting [11] is: London-type APP695, inhibitor 100 μM (Table 2).
[12] abbreviates: inhibitor 100 μM (Table 2), listed as Compound.
Setting [13] is: inhibitor 100 μM (Table 2), listed as inhibitor.

≈ marks a conversion by molar mass, not a printed value. Some results are limits rather than exact numbers.

Turning to `COC(=O)[C@H](CC(C)C)NC(=O)[C@H](CCSC)NC(=O)[C@@H](C[C@@H](O)[C@H](CC(C)C)NC(=O)OC(C)(C)C)C(C)C` [Compound 1, Boc-Leu*-Val-Met-Leu-OMe], the solubility (as a rule, the dissolved amount per volume that the medium holds) in series [1] (DMEM medium containing 10% fetal bovine serum, plasma or biological fluid, concentration 10 ng/ml) was over 0.01 µg/mL; in series [1] (DMEM medium containing 10% fetal bovine serum, plasma or biological fluid, concentration 1 μg/ml), 0.01 to 1 µg/mL (≈ 0.017 to 1.7 µM); in series [1] (DMEM medium containing 10% fetal bovine serum, plasma or biological fluid, concentration 100 μg/ml) it was under 100 µg/mL; in series [1] (DMSO, organic solvent or mixture, concentration 10 ng/ml), over 0.01 µg/mL; in series [1] (DMSO, organic solvent or mixture, concentration 1 μg/ml), over 1 µg/mL; in series [1] (DMSO, organic solvent or mixture, concentration 100 μg/ml), over 100 µg/mL. In addition, the solubility in series [1] (phosphate buffer, pH 7, aqueous buffer, Phosphate buffer (pH 7.0), concentration 10 ng/ml) was over 0.01 µg/mL; in series [1] (phosphate buffer, pH 7, aqueous buffer, Phosphate buffer (pH 7.0), concentration 1 μg/ml), 0.01 to 1 µg/mL (≈ 0.017 to 1.7 µM); in series [1] (phosphate buffer, pH 7, aqueous buffer, Phosphate buffer (pH 7.0), concentration 100 μg/ml), under 100 µg/mL; in series [1] (physiological saline, saline or isotonic, concentration 10 ng/ml) it was over 0.01 µg/mL; in series [1] (physiological saline, saline or isotonic, concentration 1 μg/ml) it was 0.01 to 1 µg/mL (≈ 0.017 to 1.7 µM); in series [1] (physiological saline, saline or isotonic, concentration 100 μg/ml), under 100 µg/mL. The Aβ40 in the series with γ-secretase [2] was 100 pg/mL; in the series on γ-secretase [3] (setting [7]), 1726 pg/mL; in the series with γ-secretase [4] (setting [10]) it was 151 pg/mL; with γ-secretase [5] (Inhibitor 100 μM, COS cells), 218 pg/mL. Also, the “Aβ42(43)” value in the series on γ-secretase [2] came out at 62 pg/mL; in the series on γ-secretase [3] (setting [7]) it was 1311 pg/mL; in the series on γ-secretase [4] (setting [10]) it was 855 pg/mL; in the series on γ-secretase [5] (Inhibitor 100 μM, COS cells), 415 pg/mL. Also, the “Inhibition rate (%) Total Aβ” value in the series on γ-secretase [2] is listed as 85%; with γ-secretase [3] (setting [8]) it was 84%; in the series with γ-secretase [3] (setting [9]) it was “more than 80%”; with γ-secretase [4] (London-type APP695, inhibitor 100 μM (Table 2), listed as Compound), 89%; with γ-secretase [4] (London-type APP695, inhibitor 100 μM (Table 2), listed as inhibitor), “more than 80%”; with γ-secretase [5] (setting [12]), 98%. For the same molecule, in the series on γ-secretase [5] (setting [13]), the “Inhibition rate (%) Total Aβ” value is listed as “about 98%”. Besides, the “Total Aβ” value with γ-secretase [2] came out at 162 pg/mL. The “Inhibition rate (%) Aβ40” value with γ-secretase [2] (listed as Inhibitor) is listed as 89%; with γ-secretase [2] (listed as inhibitor), “about 90%”; with γ-secretase [3] (Sweden-type APP695, inhibitor 100 μM (Table 2)) it was 90%. The “Inhibition rate (%) Aβ42(43)” value in the series with γ-secretase [2] (listed as Inhibitor) was 51%; in the series on γ-secretase [2] (listed as inhibitor), “about 50%”; in the series with γ-secretase [3] (setting [8]) it was 48%; in the series with γ-secretase [3] (setting [9]) it was “about 48%”; with γ-secretase [4] (setting [11]), 70%; in the series with γ-secretase [5] (setting [12]), 71%. Moreover, the “Inhibition rate (%) Aβ42(43)” value in the series on γ-secretase [5] (setting [13]) is given as “about 71%”. Besides, the “Ratio of Aβ42(43)/Aβ40” value is reported as 0.76 in the series with γ-secretase [3] (setting [7]); 5.66 in the series with γ-secretase [4] (setting [10]); 1.90 in the series with γ-secretase [5] (Inhibitor 100 μM, COS cells). Further, in the series with γ-secretase [3] (Sweden double mutation), the “inhibitory activity for Aβ40” value was “about 90%”. In addition, in the series with γ-secretase [4] (London mutation (Val717Ile), compared with wild-type sequence), the “inhibitory activity on amyloid protein production” value is reported as “nearly the same level of inhibitory activity as that noted on the wild-type sequence”. For the same molecule, the “Inhibition rate (%) Aβ42” value in the series with γ-secretase [4] (setting [11]) and in the series on γ-secretase [5] (inhibitor 100 μM (Table 2)) was 98% throughout. In the series with γ-secretase [5], the “inhibitory activity for Aβ40 production” value was “about 98%”.
For `CSCC[C@H](NC(=O)[C@@H](NC(=O)[C@H](CC(C)C)C[C@@H](O)[C@@H](NC(=O)OC(C)(C)C)[C@@H](C)OC(C)(C)C)C(C)C)C(=O)NCc1ccccc1` [Compound 1′a, t-But-OCO-Thr*-Leu-Val-Met-NH-Bzl], the results for the Aβ40 on γ-secretase [6] (10 μM) and on γ-secretase [6] (100 μM) were 31 pg/mL and 0 pg/mL, respectively. Moreover, the inhibition (commonly the share of the control response that was lost under treatment) at 10 µM on γ-secretase [6] (IMR-32, Aβ40, 10 μM, read-out: Inhibition rate (%)) came out at 73%. Besides, the inhibition at 100 µM on γ-secretase [6] (IMR-32, Aβ40, 100 μM, read-out: Inhibition rate (%)) worked out at 100%.
Consider “t-But-OCO-Thr*-Leu-Val-Met-NH-Bzl [Compound 1′b]”, for which, at γ-secretase [6] (10 μM), the Aβ40 amounted to 72 pg/mL and the “Inhibition rate (%)” value stood at 38%. Also, on γ-secretase [6] (100 μM), the Aβ40 was 26 pg/mL and the “Inhibition rate (%)” value was 78%.
